The text below walks through data of patent US11566222B2, “γδ T cell expansion procedure” (KING'S COLLEGE LONDON, priority 2014, dated 2023).

One experiment concerns Vγ9Vδ2 T-cells. As to the kind of experiment: Ex-vivo expansion of Vγ9Vδ2 T-cells from PBMC. Format: cell-based, human. On the procedure: To enrich these cells, peripheral blood mononuclear cells (PBMC) were activated with ZA and cultured in AB serum-containing RPMI 1640 medium, supplemented with IL-2/IL-15. Specifically, PBMC isolated from normal (healthy) donors (n=21 separate donors) and from patients with EOC (n=13 separate donors) were cultured with ZA (1 μg/ml day 1 only), IL-2 (100 U/ml) and IL-15 (10 ng/ml). Cytokines and medium were added daily.
Isolated PBMC cells were then reconstituted in GMP TexMACS Media (Miltenyi) at 3×10^6 cell/mL. To the reconstituted cells, 1 μg/mL Zoledronic Acid (Zometa, Novartis) was added as an activator, together with 100 U/mL IL-2 and 5 ng/mL TGF-β. The cells were incubated at 37° C. in air containing 5% carbon dioxide.
On day 3, cells were fed with 100 U/mL IL-2 and 5 ng/mL TGF-β. Thereafter, on days 4, 7, 9, 11, 13, 15, cells were counted by trypan exclusion using a hemocytometer. If the number of T-cells was less than 1×10^6 cells/mL, a further 100 U/mL IL-2 and 5 ng/mL TGF-β were added. If the number of T-cells was between 1×10^6 and 2×10^6 cells/mL, an equivalent volume of TexMACS medium was added together with 100 U/mL IL-2 and 5 ng/mL TGF-β. If the number of T-cells was greater than 2×10^6 […], double the volume of TexMACS media was added together with 100 U/mL IL-2 and 5 ng/mL TGF-β.
After 15 days, the cells were analyzed by flow cytometry with a pan γδ antibody to confirm the enrichment of γδ T-cells in these cultures.
The methodology of Example 1 above was repeated using a different basic medium, specifically RPMI+human AB serum. In particular, PBMC (3×10^6 cells/ml) were cultured in RPMI+10% human AB serum containing zoledronic acid (1 μg/ml)+IL-2 (100 U/ml; method 1) or zoledronic acid (1 μg/ml)+IL-2 (100 U/ml)+TGF-β (5 ng/ml; method 2). The percentage of γδ T-cells present in each culture was evaluated on the day of initiation of the cultures (day 1) and after a further 14 days (day 15) and the results are shown in FIG. 9B.

The subject of experiment [1] is U937 tumor cells or KG-1 tumor cells. In words: Cytotoxicity assay (luciferase) with cytarabine-pulsed tumor cells, 1:1 effector:target. The experiment is classed as cell-based. As to conditions: sub-lethal doses, 24 h pulse before T-cells. On the procedure: Cytotoxicity assays were established in triplicate at a 1:1 effector:target ratio in 96 well plates containing either U937 tumor cells or KG-1 tumor cells. Where indicated, tumor cells were pulsed for 24 h with the indicated concentrations of cytarabine, prior to addition of γδ T-cells, produced either using the method of the invention (M2) or the method of the comparative example (M1) above. There were three donors for the M2 cells and two donors for the M1 cells. A control group received no cytarabine.
Residual tumor cell viability was measured after overnight co-culture with Vγ9Vδ2 T-cells by luciferase assay.

Regarding TGF-β, the “cell expansion on addition of TGF-β” value in the experiment with Vγ9Vδ2 T-cells (RPMI + 10% human AB serum, ZA + IL-2, 5 ng/ml TGF-β, day 15) is given as “enhanced cell expansion”. Also, the “yield of Vγ9Vδ2 T-cells on addition of TGF-β” value in the experiment with Vγ9Vδ2 T-cells (TexMACS medium, ZA + IL-2, 5 ng/mL TGF-β, 15 days) is reported as “substantially enhanced yields”.
As for `Nc1ccn([C@@H]2O[C@H](CO)[C@@H](O)[C@@H]2O)c(=O)n1` [cytarabine], the “effect of cytarabine on anti-tumor activity of method 2 Vγ9Vδ2 T-cells” value in experiment [1] is “potentiated the anti-tumor activity”.
With “IL-15: cytokine supplement (10 ng/ml) in comparative expansion”, the “yield of cells on addition of IL-15” value in the experiment with Vγ9Vδ2 T-cells (RPMI 1640 with AB serum, ZA + IL-2, IL-15 10 ng/ml) was “no significant difference”.
